Measurements from BindingDB's records for doi:10.1016/j.bioorg.2015.11.006 (Universiti Teknologi Mara (Uitm), 2016).

Target: Alpha-glucosidase MAL12 (Saccharomyces cerevisiae (strain ATCC 204508 / S288c), UniProt P53341)
Experiment: Baker's Yeast α-Glucosidase Inhibition Assay
Details: pH 6.8
Description: The enzyme inhibition was evaluated according to the method previously reported by Rahim et al. [25] with slight modification. Various concentration of test compounds (10 µL) were dissolved in DMSO (ranging from 200 to 6.25 µg/mL) and premixed with 95 µL of 50 mM phosphate buffer (pH 6.8). Then, 25 µL of enzyme(0.0625 U/mL) in phosphate buffer saline was added into each well and the plate was incubated at 37 °C for 10 min. Afterward, 25 µl of PNPG in phosphate buffer saline (5 mM) were added and pre-read of the plate was taken by using a microplate reader (Spectrostar Nano BMG Labtech, Germany). The reaction mixture was then incubated at 37 °C for 30 min and change in absorbance at 405 nm was monitored up to 30 min. For negative control, the test samples were replaced with 10 µL of DMSO and acarbose was used as positive control

Sequence of Alpha-glucosidase MAL12 (P53341 whole entry): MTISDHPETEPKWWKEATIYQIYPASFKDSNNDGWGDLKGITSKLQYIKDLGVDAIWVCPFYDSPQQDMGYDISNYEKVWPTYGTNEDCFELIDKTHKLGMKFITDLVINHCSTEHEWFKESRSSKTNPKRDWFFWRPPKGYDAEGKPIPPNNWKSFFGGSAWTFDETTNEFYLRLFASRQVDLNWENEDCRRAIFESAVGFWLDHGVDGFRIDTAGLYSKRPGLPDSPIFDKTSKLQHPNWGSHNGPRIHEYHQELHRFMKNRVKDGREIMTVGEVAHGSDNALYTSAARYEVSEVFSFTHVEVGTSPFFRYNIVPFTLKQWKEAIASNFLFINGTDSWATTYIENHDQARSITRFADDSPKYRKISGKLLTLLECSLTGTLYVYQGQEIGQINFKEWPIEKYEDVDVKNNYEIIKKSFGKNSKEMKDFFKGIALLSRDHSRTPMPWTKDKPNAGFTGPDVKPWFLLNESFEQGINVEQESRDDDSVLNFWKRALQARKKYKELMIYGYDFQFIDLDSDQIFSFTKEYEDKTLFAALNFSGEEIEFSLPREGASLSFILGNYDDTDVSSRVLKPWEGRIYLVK

| IC50 [µM] | SMILES |
| --- | --- |
| 8.44 | COc1ccc(/C=N/NC(=O)c2ccc(-c3nc4cc(C)c(C)cc4[nH]3)cc2)c(O)c1 [(E)-4-(5,6-dimethyl-1H-benzo[d]imidazol-2-yl)-N'-(2-hydroxy-4-methoxybenzylidene) benzohydrazide (10)] |
| 18.2 | Cc1cc2nc(-c3ccc(C(=O)N/N=C/c4ccccc4O)cc3)[nH]c2cc1C [(E)-4-(5,6-dimethyl-1H-benzo[d]imidazol-2-yl)-N'-(2-hydroxybenzylidene) benzohydrazide (15)] |
| 24.8 | Cc1cc2nc(-c3ccc(C(=O)N/N=C/c4ccccc4C)cc3)[nH]c2cc1C [(E)-4-(5,6-dimethyl-1H-benzo[d]imidazol-2-yl)-N'-(2-methylbenzylidene) benzohydrazide (13)] |
| 8.4 | Cc1cc2nc(-c3ccc(C(=O)N/N=C/c4cc(O)c(O)c(O)c4)cc3)[nH]c2cc1C [(E)-4-(5,6-dimethyl-1H-benzo[d]imidazol-2-yl)-N'-(3,4,5-trihydroxybenzylidene) benzohydrazide (19)] |
| 158 | Cc1cc2nc(-c3ccc(C(=O)N/N=C/c4cccc(F)c4)cc3)[nH]c2cc1C [(E)-4-(5,6-dimethyl-1H-benzo[d]imidazol-2-yl)-N'-(3-fluorobenzylidene) benzohydrazide (26)] |
| 29 | COc1ccc(/C=N/NC(=O)c2ccc(-c3nc4cc(C)c(C)cc4[nH]3)cc2)cc1O [(E)-4-(5,6-dimethyl-1H-benzo[d]imidazol-2-yl)-N'-(3-hydroxy-4-methoxybenzylidene) benzohydrazide (9)] |
| 32.5 | Cc1cc2nc(-c3ccc(C(=O)N/N=C/c4cccc(O)c4)cc3)[nH]c2cc1C [(E)-4-(5,6-dimethyl-1H-benzo[d]imidazol-2-yl)-N'-(3-hydroxybenzylidene) benzohydrazide (2)] |
| 15.1 | COc1cccc(/C=N/NC(=O)c2ccc(-c3nc4cc(C)c(C)cc4[nH]3)cc2)c1 [(E)-4-(5,6-dimethyl-1H-benzo[d]imidazol-2-yl)-N'-(3-methoxybenzylidene) benzohydrazide (24)] |
| 23.5 | Cc1cccc(/C=N/NC(=O)c2ccc(-c3nc4cc(C)c(C)cc4[nH]3)cc2)c1 [(E)-4-(5,6-dimethyl-1H-benzo[d]imidazol-2-yl)-N'-(3-methylbenzylidene) benzohydrazide (14)] |
| 26 | Cc1cc2nc(-c3ccc(C(=O)N/N=C/c4ccc(O)cc4)cc3)[nH]c2cc1C [(E)-4-(5,6-dimethyl-1H-benzo[d]imidazol-2-yl)-N'-(4-hydroxybenzylidene) benzohydrazide (1)] |
| 32.6 | COc1ccc(/C=N/NC(=O)c2ccc(-c3nc4cc(C)c(C)cc4[nH]3)cc2)cc1 [(E)-4-(5,6-dimethyl-1H-benzo[d]imidazol-2-yl)-N'-(4-methoxybenzylidene) benzohydrazide (20)] |
| 18.3 | Cc1ccc(/C=N/NC(=O)c2ccc(-c3nc4cc(C)c(C)cc4[nH]3)cc2)cc1 [(E)-4-(5,6-dimethyl-1H-benzo[d]imidazol-2-yl)-N'-(4-methylbenzylidene) benzohydrazide (16)] |
| 19.3 | Cc1cc2nc(-c3ccc(C(=O)N/N=C/c4ccc([N+](=O)[O-])cc4)cc3)[nH]c2cc1C [(E)-4-(5,6-dimethyl-1H-benzo[d]imidazol-2-yl)-N'-(4-nitrobenzylidene) benzohydrazide (25)] |
| 32.1 | Cc1cc2nc(-c3ccc(C(=O)N/N=C/c4ccco4)cc3)[nH]c2cc1C [(E)-4-(5,6-dimethyl-1H-benzo[d]imidazol-2-yl)-N'-(furan-2-ylmethylene) benzohydrazide (21)] |
| 25.7 | Cc1cc2nc(-c3ccc(C(=O)N/N=C/c4ccccn4)cc3)[nH]c2cc1C [(E)-4-(5,6-dimethyl-1H-benzo[d]imidazol-2-yl)-N'-(pyridin-2-ylmethylene) benzohydrazide (18)] |
| 46 | Cc1cc2nc(-c3ccc(C(=O)N/N=C/c4cccnc4)cc3)[nH]c2cc1C [(E)-4-(5,6-dimethyl-1H-benzo[d]imidazol-2-yl)-N'-(pyridin-3-ylmethylene) benzohydrazide (23)] |
| 148 | Cc1cc2nc(-c3ccc(C(=O)N/N=C/c4ccncc4)cc3)[nH]c2cc1C [(E)-4-(5,6-dimethyl-1H-benzo[d]imidazol-2-yl)-N'-(pyridin-4-ylmethylene) benzohydrazide (11)] |
| 8.44 | COc1ccc(O)c(/C=N/NC(=O)c2ccc(-c3nc4cc(C)c(C)cc4[nH]3)cc2)c1 [(E)-4-(5,6-dimethyl-1H-benzo[d]imidazol-2-yl)-N'-(pyridin-4-ylmethylene) benzohydrazide (12)] |
| 9.99 | Cc1cc2nc(-c3ccc(C(=O)N/N=C/c4cccc(O)c4O)cc3)[nH]c2cc1C [(E)-N'-(2,3-dihydroxybenzylidene)-4-(5,6-dimethyl-1H-benzo[d]imidazol-2-yl)benzohydrazide (5)] |
| 8.74 | Cc1cc2nc(-c3ccc(C(=O)N/N=C/c4ccc(O)cc4O)cc3)[nH]c2cc1C [(E)-N'-(2,4-dihydroxybenzylidene)-4-(5,6-dimethyl-1H-benzo[d]imidazol-2-yl) benzohydrazide (6)] |
| 8.74 | Cc1cc2nc(-c3ccc(C(=O)N/N=C/c4cc(O)ccc4O)cc3)[nH]c2cc1C [(E)-N'-(2,5-dihydroxybenzylidene)-4-(5,6-dimethyl-1H-benzo[d]imidazol-2-yl) benzohydrazide (4)] |
| 12.5 | Cc1cc2nc(-c3ccc(C(=O)N/N=C/c4ccc(O)c(O)c4)cc3)[nH]c2cc1C [(E)-N'-(3,4-dihydroxybenzylidene)-4-(5,6-dimethyl-1H-benzo[d]imidazol-2-yl) benzohydrazide (7)] |
| 180 | COc1ccc(/C=N/NC(=O)c2ccc(-c3nc4cc(C)c(C)cc4[nH]3)cc2)cc1OC [(E)-N'-(3,4-dimethoxybenzylidene)-4-(5,6-dimethyl-1H-benzo[d]imidazol-2-yl)benzohydrazide (3)] |
| 34.5 | Cc1cc2nc(-c3ccc(C(=O)N/N=C/c4ccc(O)c(Br)c4)cc3)[nH]c2cc1C [(E)-N'-(3-bromo-4-hydroxybenzylidene)-4-(5,6-dimethyl-1H-benzo[d]imidazol-2-yl)benzohydrazide (17)] |
| 22.4 | Cc1cc2nc(-c3ccc(C(=O)N/N=C/c4cccc(Cl)c4)cc3)[nH]c2cc1C [(E)-N'-(3-chlorobenzylidene)-4-(5,6-dimethyl-1H-benzo[d]imidazol-2-yl) benzohydrazide (8)] |
| 24.8 | Cc1cc2nc(-c3ccc(C(=O)N/N=C\c4ccc(Cl)cc4)cc3)[nH]c2cc1C [(Z)-N'-(4-chlorobenzylidene)-4-(5,6-dimethyl-1H-benzo[d]imidazol-2-yl)benzohydrazide (22)] |
